pIC50: −log10 of the molar value.
Molecular target: TRPM4 (Homo sapiens, UniProt Q8TD43)
Assay: whole-cell patch clamp of endogenous TRPM4 currents in HCT116 cells
Type: cell-based

Chain of TRPM4 (Q8TD43 whole entry): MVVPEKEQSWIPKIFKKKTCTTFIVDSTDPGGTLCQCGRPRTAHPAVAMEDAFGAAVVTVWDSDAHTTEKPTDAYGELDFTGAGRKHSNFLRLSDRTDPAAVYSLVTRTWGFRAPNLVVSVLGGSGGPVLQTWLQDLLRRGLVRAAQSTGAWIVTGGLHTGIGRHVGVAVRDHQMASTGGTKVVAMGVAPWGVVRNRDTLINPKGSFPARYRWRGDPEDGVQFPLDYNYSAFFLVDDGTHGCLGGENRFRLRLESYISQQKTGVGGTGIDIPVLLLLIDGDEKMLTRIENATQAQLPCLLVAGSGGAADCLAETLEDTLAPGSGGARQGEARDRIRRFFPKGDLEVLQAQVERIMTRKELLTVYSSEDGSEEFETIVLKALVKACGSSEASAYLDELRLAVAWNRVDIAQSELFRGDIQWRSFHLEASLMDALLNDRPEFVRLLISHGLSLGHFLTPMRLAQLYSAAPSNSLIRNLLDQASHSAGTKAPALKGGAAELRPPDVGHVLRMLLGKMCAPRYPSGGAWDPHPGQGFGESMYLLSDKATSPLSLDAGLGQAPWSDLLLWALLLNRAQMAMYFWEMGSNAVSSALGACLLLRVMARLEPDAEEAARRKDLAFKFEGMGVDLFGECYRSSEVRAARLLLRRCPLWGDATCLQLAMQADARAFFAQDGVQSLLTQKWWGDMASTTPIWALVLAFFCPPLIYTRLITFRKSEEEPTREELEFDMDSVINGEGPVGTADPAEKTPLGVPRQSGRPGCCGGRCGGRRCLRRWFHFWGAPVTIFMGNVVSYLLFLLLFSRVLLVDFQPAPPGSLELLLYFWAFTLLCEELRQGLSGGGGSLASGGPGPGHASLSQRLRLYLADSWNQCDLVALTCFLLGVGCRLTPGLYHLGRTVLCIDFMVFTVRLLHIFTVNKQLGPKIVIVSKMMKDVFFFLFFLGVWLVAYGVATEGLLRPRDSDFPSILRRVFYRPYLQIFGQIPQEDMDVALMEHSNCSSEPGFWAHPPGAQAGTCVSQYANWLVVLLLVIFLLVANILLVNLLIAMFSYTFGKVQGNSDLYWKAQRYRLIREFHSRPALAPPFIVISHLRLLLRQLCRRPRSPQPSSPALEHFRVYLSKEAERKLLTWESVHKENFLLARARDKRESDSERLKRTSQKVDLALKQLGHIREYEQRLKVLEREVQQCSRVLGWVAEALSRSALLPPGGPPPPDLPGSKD

For `Cc1cc(Cl)ccc1OC(C)C(=O)Nc1cc(Cl)ccc1C(=O)O` (stereo not shown) [LBA, 4-chloro-2-(2-(4-chloro-2-methylphenoxy)propanamido) benzoic acid], the pIC50 was 5.74.
